From US11958812B2, “3, 5-disubstituted pyridine and 3, 5-disubstituted pyridazine derivatives and pharmaceutical use of same” (MITSUBISHI TANABE PHARMA CORPORATION, priority 2018, dated 2024)

Experiments:
human recombinant ATX = human recombinant ATX (Homo sapiens, UniProt Q13822); experiment: Enzyme inhibition test (choline release from LPC, Amplex UltraRed fluorescence); type: biochemical; details: 200 μM LPC substrate, 1 hr at room temperature, read-out: Experimental Example 1 human ATX IC50
Protocol: [Enzyme Inhibition Test Method]
A mixture (10 μL) of substrate and a set of choline quantification reagents (200 μM LPC (1-Oleoyl-sn-glycero-3-phosphocholine Sigma #L1881), 25 μM Amplex UltraRed reagent (Invitrogen), 0.1 U/mL Peroxidase (TOYOBO), 1 U/mL Choline oxidase (TOYOBO)), prepared with assay buffer (50 mM Tris (pH 8.0), 140 mM NaCl, 5 mM KCl, 1 mM CaCl2, 1 mM MgCl2, 0.1% BSA (Albumin from bovine serum, SIGMA), 0.0025% Triton X-100), enzyme (0.4 ng/μL human recombinant ATX) (10 μL), compound-containing solution (100 nL) were dispensed to a 384-well plate, incubated at room temperature for 1 hr and the fluorescence (Ex. 525 nm/Em. 598 nm) was measured. As the standard, choline chloride was used. With a blank free of enzyme was taken as inhibitory rate 100%, and a control free of inhibitor as inhibitory rate 0%, the inhibitory rate was calculated, and IC50 value was calculated from the inhibitory activity percentage at each concentration.

ATX activity in plasma = biological target: T1, ATX activity in plasma (Rattus norvegicus, UniProt Q64610); experiment: Measurement of ATX activity in plasma (ex vivo), rat single administration test; parameters: species or system male Wistar rat
T1 construct: from tissue; host or cells: plasma of male Wistar rats after oral dosing
Protocol: [Measurement of ATX Activity in Plasma (Ex Vivo)]
A compound administration solution prepared by wet pulverization in a mixer mill (type: MM400) for 10 min and adjusting to a given concentration with 0.5% aqueous carboxymethylcellulose solution was orally administered to male Wistar rat (5-week-old when used) at 5 mL/kg. Blood samples were collected from the cervical vein over time at 8 to 24 hr after administration. The blood was heparin-treated using a micro blood collection tube Capiject (CJ-AL, TERUMO CORPORATION), and the plasma was separated by centrifugation (4° C., 12,000 rpm, for 2 min), and preserved at −80° C. The rats after blood sampling were euthanized by exsanguination from the caudal vena cava under isoflurane inhalation anesthesia. The measurement of ATX activity in plasma was evaluated using the concentration of choline in the plasma, which was liberated from lysophosphatidylcholine (substrate of ATX) by the lysophospholipase D activity of ATX, as an index. An equal amount of 2× assay buffer (200 mM Tris-HCl pH9.0, 10 mM MgCl2, 1 M NaCl, 0.1% Triton X-100) is added to plasma (12 μL) and reacted at 37° C. for 6 hr. The reaction mixture (10 μL) after reaction for 6 hr and 45 μL of reagent R^1 solution (100 mM Tris-HCl pH 8.0, 0.5 mM TOOS, 10 U/mL peroxidase, 0.01% Triton X-100) were added and blended and absorbance at 550-700 nm was measured and used as a prevalue. As the standard, choline chloride was used. 1 mM choline chloride was diluted with 2× assay buffer up to 7 steps in 2-fold serial dilution, R^1 solution was treated similarly and the absorbance was measured. Furthermore, 15 μL of reagent R^2 solution (100 mM Tris-HCl pH 8.0, 1 mM 4-aminoantipyrine, 10 U/mL choline oxidase, 0.01% Triton X-100) was added, and the mixture was reacted at room temperature for 10 min, and absorbance at 550-700 nm was measured. The choline concentration per reaction time was calculated from the difference between the absorbance after R^2 solution addition and prevalue measured before R^2 addition and used as ATX activity value. inhibitory activity (%)=100×{1−[choline concentration (μM) of test substance administration group/choline concentration (μM) of solvent control group]} <calculating formula>

Row | IC50 (human recombinant ATX) | Experimental Example 2 Rat single administration test (inhibitory activity (%) 8 hr after 1 mg/kg oral administration) (ATX activity in plasma) | Structure (SMILES)
1 | 2 nM | 92% | O=C(O)[C@H]1C[C@@H]1c1cccc(-c2cncc(OC[C@H]3CC[C@H](C(F)(F)F)CC3)c2)n1 [Example 8-1, (1S,2S)-2-(5′-{[trans-4-(trifluoromethyl)cyclohexyl]methoxy}-2,3′-bipyridin-6-yl)cyclopropanecarboxylic Acid]
2 | 1 nM | 94% | COc1ccc(-c2cnnc(OC[C@H]3CC[C@H](C(F)(F)F)CC3)c2)cc1[C@H]1C[C@@H]1C(=O)O [Example 1-1, (1S,2S)-2-[2-methoxy-5-(6-{[trans-4-(trifluoromethyl)cyclohexyl]methoxy}pyridazin-4-yl)phenyl]cyclopropanecarboxylic Acid]
3 | 2 nM | 94% | O=C(O)[C@H]1C[C@@H]1c1cc(-c2cncc(OC[C@H]3CC[C@H](C(F)(F)F)CC3)c2)ccn1 [Example 9-1, (1S,2S)-2-(5-{[trans-4-(trifluoromethyl)cyclohexyl]methoxy}-3,4′-bipyridin-2′-yl)cyclopropanecarboxylic Acid]
4 | 3 nM | 94% | O=C(O)[C@@H]1C[C@H]1c1cc(-c2cncc(OC[C@H]3CC[C@H](C(F)(F)F)CC3)c2)ccn1 [Example 9-2, (1R,2R)-2-(5-{[trans-4-(trifluoromethyl)cyclohexyl]methoxy}-3,4′-bipyridin-2′-yl)cyclopropanecarboxylic Acid]
5 | 5 nM | 93% | COc1ccc(-c2cnnc(OC[C@H]3CC[C@H](C(F)(F)F)CC3)c2)cc1[C@@H]1C[C@H]1C(=O)O [Example 1-2, (1R,2R)-2-[2-methoxy-5-(6-{[trans-4-(trifluoromethyl)cyclohexyl]methoxy}pyridazin-4-yl)phenyl]cyclopropanecarboxylic Acid]
6 | 20 nM | 47% | O=C(O)[C@@H]1C[C@H]1c1cccc(-c2cncc(OC[C@H]3CC[C@H](C(F)(F)F)CC3)c2)n1 [Example 8-2, (1R,2R)-2-(5′-{[trans-4-(trifluoromethyl)cyclohexyl]methoxy}-2,3′-bipyridin-6-yl)cyclopropanecarboxylic Acid]
7 | 3 nM | 83% | O=C(O)/C=C/C[C@@H]1COCCN1c1cncc(OCc2ccc(OC(F)(F)F)cc2)c1 [Example 22-1, (2E)-4-[(3R)-4-(5-{[4-(trifluoromethoxy)benzyl]oxy}pyridin-3-yl)morpholin-3-yl]-2-butenoic Acid]

Further lines, the molecule ahead of its results:

Row | Structure (SMILES) | IC50 (human recombinant ATX) | Experimental Example 2 Rat single administration test (inhibitory activity (%) 8 hr after 1 mg/kg oral administration) (ATX activity in plasma)
8 | O=C(O)CC1CCCN(c2cncc(OCc3ccc(OC(F)(F)F)cc3)c2)C1 (centres unmarked) [Example 92] | 57 nM | 73%
9 | C[C@@H]1CN(c2cncc(OCc3ccc(OC(F)(F)F)cc3)c2)C[C@H](CCC(=O)O)O1 [Example 87] | 16 nM | 95%
10 | COc1ccc(-c2cnnc(OCc3ccc(OC(F)(F)F)cc3)c2)cc1C1CC1C(=O)O (centres unmarked) [Example 31] | 4 nM | 90%
11 | O=C(O)c1ccc2c(c1)CCN2c1cncc(OCC2CCN(CC(F)(F)F)CC2)c1 [Example 39] | 7 nM | 84%
12 | COc1cc(C2CN(c3cncc(OC[C@H]4CC[C@H](C(F)(F)F)CC4)c3)CCO2)ccc1C(=O)O (some centres unmarked) [Example 46] | 2 nM | 74%
13 | O=C(O)c1ccc(C2CN(c3cncc(OC[C@H]4CC[C@H](C(F)(F)F)CC4)c3)CCO2)cc1 (some centres unmarked) [Example 45] | 7 nM | 81%
14 | COc1ccc(-c2cncc(OCc3ccc(OC(F)(F)F)cc3)c2)nc1[C@H]1C[C@@H]1C(=O)O [Example 26] | 5 nM | 82%
15 | O=C(O)CC[C@H]1CN(c2cncc(OCc3ccc(OC(F)(F)F)c(F)c3)c2)CCO1 [Example 84] | 21 nM | 89%
16 | COc1ccc(-c2cnnc(OCc3ccc(OC(F)(F)F)cc3)c2)nc1[C@H]1C[C@@H]1C(=O)O [Example 25] | 1 nM | 91%
17 | O=C(O)CC[C@H]1CN(c2cncc(OCc3ccc(C(F)(F)F)cc3)c2)CCO1 [Example 15, 3-[(2S)-4-(5-{[4-(trifluoromethyl)benzyl]oxy}pyridin-3-yl)morpholin-2-yl]propanoic Acid] | 42 nM | 75%
18 | COc1ccc(-c2cncc(OCc3ccc(OC(F)(F)F)cc3)c2)cc1[C@@H]1C[C@H]1C(=O)O (relative stereo) [Example 2, trans-2-[2-methoxy-5-(5-{[4-(trifluoromethoxy)benzyl]oxy}pyridin-3-yl)phenyl]cyclopropanecarboxylic Acid] | 9 nM | 72%
19 | COc1ccc(-c2cncc(CCc3ccc(OC(F)(F)F)cc3)c2)nc1[C@H]1C[C@@H]1C(=O)O [Example 6, (1S,2S)-2-(5-methoxy-5′-{2-[4-(trifluoromethoxy)phenyl]ethyl}-2,3′-bipyridin-6-yl)cyclopropanecarboxylic Acid] | 4 nM | 71%
20 | O=C(O)CCCC1CCCN1c1cncc(OCc2ccc(OC(F)(F)F)cc2)c1 (centres unmarked) [Example 23, 4-[1-(5-{[4-(trifluoromethoxy)benzyl]oxy}pyridin-3-yl)pyrrolidin-2-yl]butanoic Acid] | 11 nM | 83%
21 | O=C(O)CC[C@H]1CN(c2cncc(OCc3ccc(OC(F)(F)F)cc3)c2)CCO1 [Example 14, 3-[(2S)-4-(5-{[4-(trifluoromethoxy)benzyl]oxy}pyridin-3-yl)morpholin-2-yl]propanoic Acid] | 12 nM | 92%
22 | O=C(O)c1cccc(C2CN(c3cncc(OC[C@H]4CC[C@H](C(F)(F)F)CC4)c3)CCO2)c1 (relative stereo) [Example 13, 3-[4-(5-{[trans-4-(trifluoromethyl)cyclohexyl]methoxy}pyridin-3-yl)morpholin-2-yl]benzoic Acid] | 3 nM | 71%
23 | COc1ccc(-c2cncc(OCc3ccc(C(F)(F)F)cc3)c2)nc1[C@H]1C[C@@H]1C(=O)O [Example 29] | 3 nM | 80%
24 | O=C(O)CC[C@H]1CN(c2cncc(OCc3ccc(OC(F)(F)F)cc3F)c2)CCO1 [Example 82] | 19 nM | 89%
25 | Cc1cc(OC(F)(F)F)ccc1COc1cncc(N2CCO[C@@H](CCC(=O)O)C2)c1 [Example 83] | 8 nM | 89%
